Test results from PMC10816808, “Enhancement of the Antitumor and Antimetastatic Effect of Topotecan and Normalization of Blood Counts in Mice with Lewis Carcinoma by Tdp1 Inhibitors—New Usnic Acid Derivatives” (International Journal of Molecular Sciences, 2024).
Several values for one entry are separate records, joined by “and”; a condition that tells them apart may be missing. Identical values can stand only once.

Experiments:
[1] = Topotecan cytotoxicity with Tdp1 inhibitor (MTT), MRC-5; type: cell-based; details: human, MRC-5 cells (lung fibroblasts, nontumor); topotecan alone or in the presence of 5 µM Tdp1 inhibitor
Text: (§1) Tdp1 inhibitors combined with topotecan dramatically reduce tumor metastasis. Usnic acid derivatives of the enamine and hydrazonothiazole series turned out to be promising sensitizers of the action of topotecan both on cultured cell lines and on mouse tumors in vivo [30, 32]. We studied the ability of the usnic acid derivatives to sensitize the effects of topotecan on the same panel of cell lines. We used two non-cancerous cell lines MRC-5 and HEK293A, including previously obtained HEK293A Tdp1 knockout cells (for compound 7), and cancerous cell lines HeLa, HCT-116, A-549, MCF-7, T98G. We found the most pronounced and reliable sensitizing effect on cancerous cell lines HeLa, HCT-116, A-549, MCF-7 only for compound 7 (Table 2 and Figures S2 and S3).
(§2) Cytotoxicity of the compounds against human tumor cell lines: HeLa (cervical cancer), HCT-116 (colorectal cancer), A-549 (lung cancer), MCF-7 (breast cancer), T98G (glioblastoma), HepG2 (hepatocarcinoma), and nontumor cell lines: MRC-5 (lung fibroblasts) and HEK293A (human embryonic kidney) was examined using the MTT test. HCT-116 and MRC-5 cell lines were provided by the Cell Culture Bank of the State Research Center for Virology and Biotechnology Vector, Novosibirsk, Russia. A-549, MCF-7, and T98G cell lines were obtained from the Russian Cell Culture Collection (RCCC) Institute of Cytology RAS (St. Petersburg, Russia). […]

T98G = assay: Topotecan cytotoxicity with Tdp1 inhibitor (MTT), T98G; type: cell-based; details: Homo sapiens, topotecan alone or in the presence of 5 µM Tdp1 inhibitor
Text: as §1, §2

A-549 = assay: Topotecan cytotoxicity with Tdp1 inhibitor (MTT), A-549; type: cell-based; details: Homo sapiens, A549; topotecan alone or in the presence of 5 µM Tdp1 inhibitor
Text: as §1, §2

[2] = system: Lewis lung carcinoma (LLC); assay: Antitumor and antimetastatic effect in the Lewis lung carcinoma model; type: in vivo, mice; details: for average number of metastases in the lungs / average primary node (tumor) weight / tumor growth inhibition (TGI): C57BL mice with LLC; for average number of metastases in the lungs / average primary node (tumor) weight: day 18, mean ± SD; for average primary node (tumor) weight: single dose; for tumor growth inhibition (TGI): vs intact control; for number of metastases in the lungs / tumor weight: individual animals; for effect on the number of metastases in the lungs (in words): monotherapy, Tpc 1 mg/kg i/p, 7 50 mg/kg i/p or i/g
Text: Compound 7 is a hybrid of two compounds: leaders in their subclasses of usnic acid derivatives 1 and 4 [28, 32]. We studied the ability of compound 7 to sensitize the effect of topotecan on murine Lewis lung carcinoma (LLC) (Tpc + 7, Figure 3). The LLC cell line was maintained as a transplantable strain in mice and was provided by the cell depository of the Institute of Cytology and Genetics SB RAS (Novosibirsk, Russia). […] Subcutaneous transplantation leads to the development of a primary node at the injection site and the appearance of metastases in the lungs on days 17–21 [47]. The size of the primary tumor was determined as the difference in the weight of the healthy limb and the limb with the tumor after the mice were removed from the experiment on 18th day after LLC transplantation.
Female C57BL mice with a body weight of ~19–21 g were used in the study. Mice were housed in plastic cages with a wood chip bedding and had free access to water and food. Lewis lung carcinoma (LLC) and Krebs-2 ascites were used as experimental tumor models. The transplantable tumors were obtained from the cell bank of the Institute of Cytology and Genetics (Novosibirsk, Russia). The LLC mouse model is the most common model of lung cancer; LLC cells remain tumorigenic and capable of metastasis into the lung in C57BL mice. Tumor tissue was minced and resuspended in 0.9% NaCl prior to grafting. LLC was injected into the right thigh of mice at 800,000 cells in 0.2 mL per mouse.
Previously, we divided the animals into 6 groups of 6–7 individuals in each, the treatment was carried out once 7 days after tumor transplantation: • - Group 1—Intact control—mice of this group were inoculated with a tumor, receiving 0.2 mL of saline intraperitoneally; • - Group 2—DMSO-Tween-80—mice were injected once intragastrically with a probe 200 μL of a solution containing saline, Tween-80 (10%) and DMSO (15%), a solvent for 7; • - Group 3—Tpc (aqueous solution)—mice were injected once intraperitoneally with 200 µL of Tpc at a single dose of 1 mg/kg; • - Group 4—Tpc + 7 i/g—mice received Tpc once as described for group 3 and 7 in the form of 200 µL of suspension (Tween-80 (10%) and DMSO (15%) in saline) once intragastrically at a dose of 50 mg/kg; • - Group 5—7 i/g—mice were injected with 7 as described for group 4; • - Group 6—Tpc + 7 i/p—mice were injected with topotecan once as described for groups 3 and 7 in the form of 200 µL of suspension (Tween-80 (10%) and DMSO (15%) in saline) once intraperitoneally at a dose of 50 mg/kg; • - Group 7—7 i/p—mice were injected with 7 as for group 6.
The substances were administered as a single injection in a volume of 0.2 mL on day 13 after tumor grafting. The anticancer effect was evaluated by the primary tumor growth and the number of metastases in the lungs of all mice. Metastases were counted after fixation in 10% formalin under an MBI-3 microscope (LOMO, Saint Petersburg, Soviet Union) at a threefold magnification.

HCT-116 = assay: Topotecan cytotoxicity with Tdp1 inhibitor (MTT), HCT-116; type: cell-based; details: Homo sapiens, topotecan alone or in the presence of 5 µM Tdp1 inhibitor
Text: as §1, §2

[3] = MTT cytotoxicity test, A-549; type: cell-based; details: human, A-549 cells (lung cancer), read-out: semitoxic concentration (CC50), A-549
Text: (§3) Compounds 6 and 8 with a bromophenol residue in the enamine fragment have a weak or moderate effect on cell survival (Table 1 and Supplementary Figure S1).
(§4) Cytotoxicity of the compounds against human tumor cell lines: HeLa (cervical cancer), HCT-116 (colorectal cancer), A-549 (lung cancer), MCF-7 (breast cancer), T98G (glioblastoma), HepG2 (hepatocarcinoma), and nontumor cell lines: MRC-5 (lung fibroblasts) and HEK293A (human embryonic kidney) was examined using the MTT test. HCT-116 and MRC-5 cell lines were provided by the Cell Culture Bank of the State Research Center for Virology and Biotechnology Vector, Novosibirsk, Russia. A-549, MCF-7, and T98G cell lines were obtained from the Russian Cell Culture Collection (RCCC) Institute of Cytology RAS (St. Petersburg, Russia). HEK293A cells were purchased (ThermoFisher Scientific, Waltham, MA, USA).
(§5) The cell culture medium DMEM medium (Invitrogen, Carlsbad, CA, USA) contained 10% fetal bovine serum (FBS) (Invitrogen), penicillin (100 units/mL), and streptomycin (100 µg/mL). Cells were seeded into 96-well plates at 5000 cells per well and grown at 37 °C and 5% CO2 in a humid atmosphere. At 30–50% confluence, the tested compounds were added to the medium to a final DMSO content of 1%. Control wells contained 1% DMSO. To determine the cytotoxicity of Tdp1 inhibitors, the cells were treated with compounds with concentrations ranging from 1 to 100 µM for 72 h at 37 °C […]. All measurements were repeated a minimum of twice.

[4] = MTT cytotoxicity test, HCT-116; type: cell-based; details: human, HCT-116 cells (colorectal cancer), read-out: semitoxic concentration (CC50), HCT-116
Text: as §3, §4, §5

[5] = MTT cytotoxicity test, HeLa; type: cell-based; details: human, HeLa cells (cervical cancer), read-out: semitoxic concentration (CC50), HeLa
Text: as §3, §4, §5

[6] = Tpc 1 mg/kg i/p and/or 7 50 mg/kg i/p
[7] = mice with LLC, Tpc 1 mg/kg i/p and/or 7 50 mg/kg i/p
[8] = 7 50 mg/kg i/g, alone or with Tpc 1 mg/kg i/p
[9] = mice with LLC, 7 50 mg/kg i/g, alone or with Tpc 1 mg/kg i/p

| Compound | CC50 [1] [nM] | CC50 (T98G) [nM] | CC50 (A-549) [nM] | average number of metastases in the lungs [2, 6] | average primary node (tumor) weight [2, 6] | tumor growth inhibition (TGI) [2, 6] [%] | number of metastases in the lungs [2, 7] | tumor weight [2, 7] | effect on the number of metastases in the lungs (in words) ([2]; mice with LLC) | CC50 (HCT-116) [nM] | CC50 at 72 h [3] [nM] | CC50 at 72 h [4] [nM] | average primary node (tumor) weight [2, 8] | tumor growth inhibition (TGI) [2, 8] [%] | number of metastases in the lungs [2, 9] | tumor weight [2, 9] | effect on the growth of the primary node (in words) ([2]; mice with LLC, mono mode) | CC50 at 72 h [5] [nM] |
| --- | --- | --- | --- | --- | --- | --- | --- | --- | --- | --- | --- | --- | --- | --- | --- | --- | --- | --- |
| CC[C@@]1(O)C(=O)OCc2c1cc1n(c2=O)Cc2cc3c(CN(C)C)c(O)ccc3nc2-1 [Tpc, topotecan] | > 10000 | 2500 | 1500 | 11,8±6,1 | 2,8±0,5 g | 36.4 | 24 and 9 and 5 | 2.9 g and 3 g and 3.4 g and 2.7 g | virtually no effect | 810 |  |  |  |  |  |  |  |  |
| C/C(NCCCc1cc(C(C)(C)C)c(O)c(C(C)(C)C)c1)=C1\C(=O)C=C2Oc3c(-c4csc(N/N=C/c5ccc(Br)cc5)n4)c(O)c(C)c(O)c3[C@@]2(C)C1=O [Compound 7, (4E)-10-{2-[(E)-2-[(4-bromophenyl)methylidene]hydrazin-1-yl]-1,3-thiazole-4-yl}-4-(1-{[3-(3,5-di-tret-butyl-4-hydroxyhenyl)propyl]amino}ethylidene)-11,13-dihydroxy-2,12-dimethyl-8-oxatricyclo [7.4.0.02,7]trideca-1(13),6,9,11-tetraen-3,5-dione] |  |  |  | 15,5±5,5 | 3,9±0,7 g | 11.4 | 10 and 21 | 3.4 g and 4.4 g | no effect |  | > 100000 | > 100000 | 4,2±0,9 g | 4.5 | 18 and 4 and 21 and 0 | 2.9 g and 4.5 g and 4.8 g and 3.7 g and 5.3 g | no effect | > 100000 |
